From patent publication US11633394B2, “Substituted alkynylene compounds as anticancer agents” (Aurigene Oncology Limited, priority 2018, dated 2023) come the findings set out here.

For orientation: IC50 means the concentration needed to halve the response being measured. A word on the viability: it is a read-out of living cells in per cent, often relative to untreated cells. By inhibition is commonly meant the share of the control response that was lost under treatment. Higher therefore signals a response far below the control.

Holding throughout (type): cell-based
One series relates to NCI-H2122 cells. In words: Anti proliferative activity in NCI-H2122 cells by XTT assay. The conditions noted are these: Homo sapiens, NCI-H2122, 192 h, H2122 cell line; for IC50: 8 days (192 hour) incubation; for viability at 30 µM: 8 days. How it is done:
Example 79: Determination of Anti Proliferative Activity in NCI-H2122 Cells by XTT Assay
NCI-H2122 cells (ATCC CRL-5985) were plated at 1000 cells/well in 96 well flat clear bottom plates (Corning, Cat. No 3596) using complete RPMI-1640 media. After 24 hours, compounds of present invention were added to cells from 10 mM stocks made in DMSO (Sigma Cat no. D2650). Each concentration of compound was tested in triplicate with DMSO concentration not exceeding a final percentage of 0.3 in the cells. Complete RPMI-1640 media changed at Day 3 (72 hour) and Day 6 (144 hour) along with compounds of current invention. After 8 days (192 hour) of incubation assay terminated using 50 μl of XTT reagent (Invitrogen, Cat. no X6493). XTT reagent was made by dissolving 1 mg/mi XTT in serum free media with addition of 25 μM Phenazine methosulfate (sigma Cat. no P9625). Absorbance readings were taken in spectrophotometer at 465 nm. The data was analysed using graph pad prism software. Positive control (100% survival)=Cells in complete media with 0.3% DMSO; Negative control/blank (0% survival)=Media alone containing 0.3% DMSO.
(§1) The compounds of the present invention were screened in the above mentioned assay and the results are tabulated below.
For orientation: Tetrazolium assays rely on reduction of a dye to a coloured formazan, in cell work by metabolically active cells.

The next series has as its system OCI-Ly10 cells. The series can be described thus: Anti proliferative activity in OCI-Ly10 cells (CTG luminescence). The conditions noted are these: for inhibition at 1 µM / inhibition at 10 µM: Homo sapiens, OCI-Ly10, 72 h. How it is done: Example 80: Determination of Anti Proliferative Activity in OCI-Ly10 Cells
OCI-Ly10 cells (UHN Canada) were plated at 7500 cells/well in 96 well flat bottom plates (Corning, Cat. No CLS3904) using complete Iscove's Modified Dulbecco's Medium (IMDM. After 6 hours, compounds from the present invention were added to the cells from 10 mM stocks made in DMSO (Sigma, Cat. No D2650). Each concentration of compound was tested in triplicates with DMSO concentration not exceeding a final percentage of 0.1 in the cells. After 72 hours of incubation in CO2 incubator, CTG (Promega, Cat. No G7572) was added to the wells and Luminescence readings were taken in the plate reader. Percent inhibition in proliferation was calculated using Microsoft Excel software. Positive control (100% survival)=Cells in complete media with 0.1% DMSO; Negative control/blank (0% survival)=Media alone containing 0.1% DMSO.

A further series deals with NCI-H1792 cells. The series can be described thus: Anti proliferative activity in NCI-H1792 cells by XTT assay. The conditions noted are these: H1792 cell line; for IC50: 72 hours incubation. How it is done: Example 78: Determination of Anti Proliferative Activity in NCI-H1792 Cells by XTT Assay
NCI-H1792 cells (ATCC CRL-5895) were plated at 2000 cells/well in 96 well flat clear bottom plates (Corning, Cat. No 3596) using complete RPMI media. After 24 hours, compounds of present invention were added to cells from 20 mM stocks made in DMSO (Sigma Cat no. D2650). Each concentration of compound was tested in triplicate with DMSO concentration not exceeding a final percentage of 0.3 in the cells. After 72 hours of incubation in CO2 incubator, XTT (Invitrogen, Cat. no X6493) was added to the wells. XTT was dissolved in serum free media at 1 mg/ml and absorbance readings were taken in spectrophotometer at 465 nm. The data was analysed using graph pad prism software. Positive control (100% survival)=Cells in complete media with 0.3% DMSO; Negative control/blank (0% survival)=Media alone containing 0.3% DMSO.
as §1

Setting [1] is: Homo sapiens, NCI-H1792, 72 h, at 30 μM, 72 hours.

Where only a bound is given, the exact number is not on record here.

In the series on NCI-H2122 cells, `C=CC(=O)N1CCN(C(=O)NC(C)C#Cc2ccc(Oc3ccccc3)c(Cl)c2)CC1` (stereo not shown) [Example 25] showed an IC50 of 10 to 25 µM and a viability at 30 µM of 16%. The compound further came in with an inhibition at 1 µM in the series on OCI-Ly10 cells (at 1 μM) of 3%. Besides, the inhibition at 10 µM in the series on OCI-Ly10 cells (at 10 μM) amounted to 72%.

Consider `C=CC(=O)N1CCN(C(=O)NC(C)C#Cc2ccc(C#N)c(C(F)(F)F)c2)CC1` (stereo not shown) [Example 63], for which, in the series on NCI-H2122 cells, the IC50 is under 10 µM and the viability at 30 µM came to 18%. Besides, at 1 µM the inhibition in the series on OCI-Ly10 cells (at 1 μM) was 49%. In the series with OCI-Ly10 cells (at 10 μM), this compound registered an inhibition at 10 µM of 79%.

Turning to `C=CC(=O)N1CCN(C(=O)NC(C)C#Cc2ccc(Cl)c(Cl)c2)CC1=O` (racemic) [Example 52, 4-acryloyl-N-(4-(3,4-dichlorophenyl)but-3-yn-2-yl)-3-oxopiperazine-1-carboxamide], in the series on NCI-H2122 cells, the IC50 was in the range of 10 to 25 µM and the viability at 30 µM amounted to 78%. This compound also gave an inhibition at 1 µM in the series with OCI-Ly10 cells (at 1 μM) of 3%. The inhibition at 10 µM with OCI-Ly10 cells (at 10 μM) is 82%.

In the series with NCI-H1792 cells (Homo sapiens, NCI-H1792, 72 h), `C=CS(=O)(=O)N[C@H]1CC[C@@H](NC(=O)NC(C)C#Cc2ccc(Cl)c(Cl)c2)CC1` (mixture of isomers) [Example 50, N-((1s, 4s)-4-(3-(4-(3,4-dichlorophenyl)but-3-yn-2-yl)ureido)cyclohexyl) ethenesulfonamide] yielded an IC50 of under 10 µM. For the same compound, the values for the viability at 30 µM in the series on NCI-H1792 cells (setting [1]) and in the series on NCI-H2122 cells were 17% and 1%, respectively. In the series on OCI-Ly10 cells (at 1 μM), this compound had an inhibition at 1 µM of 32%. Besides, the inhibition at 10 µM with OCI-Ly10 cells (at 10 μM) worked out at 48%.

In the series with NCI-H2122 cells, `C=CC(=O)N1CC(N2CCN(C(=O)NC(C)C#Cc3ccc(Cl)c(C4(C)CC4)c3)CC2)C1` (stereo not shown) [Example 29] showed an IC50 of under 10 µM. This compound also registered an inhibition at 1 µM in the series with OCI-Ly10 cells (at 1 μM) of 42%. Further, the inhibition at 10 µM with OCI-Ly10 cells (at 10 μM) is 90%.

In the series on NCI-H2122 cells, `CC(C#Cc1ccc(Cl)c(Cl)c1)NC(=O)N1CCN(C(=O)/C=C/C(F)(F)F)CC1` (racemic) [Example 42, (E)-N-(4-(3,4-dichlorophenyl)but-3-yn-2-yl)-4-(4,4,4-trifluorobut-2-enoyl) piperazine-1-carboxamide] came in with an IC50 of under 10 µM and a viability at 30 µM of 0%. Also, 1 µM produced 81% inhibition with OCI-Ly10 cells (at 1 μM). The compound also registered an inhibition at 10 µM in the series with OCI-Ly10 cells (at 10 μM) of 62%.

Compound `C=CS(=O)(=O)N1CCN(C(=O)NC2(C#Cc3ccc(Cl)c(Cl)c3)CC2)CC1` [Example 51, N-(1-((3,4-dichlorophenyl)ethynyl)cyclopropyl)-4-(vinylsulfonyl) piperazine-1-carboxamide] displayed a viability at 30 µM in the series on NCI-H2122 cells of 0%. In the series with OCI-Ly10 cells (at 1 μM), this compound registered an inhibition at 1 µM of 3%. In the series on OCI-Ly10 cells (at 10 μM), this compound yielded an inhibition at 10 µM of 52%.

Regarding `CC(C#Cc1ccc(Cl)c(Cl)c1)NC(=O)N1CCC(N2C(=O)C=CC2=O)CC1` (stereo not shown) [Example 59], in the series with NCI-H2122 cells, the IC50 was under 10 µM and the viability at 30 µM is 0%. The compound further gave an inhibition at 1 µM in the series with OCI-Ly10 cells (at 1 μM) of 25%. Moreover, the inhibition at 10 µM in the series on OCI-Ly10 cells (at 10 μM) is 100%.

`C=CC(=O)N1CCN(C(=O)NC(C)C#Cc2ccc(F)c(Cl)c2)CC1` (stereo not shown) [Example 5] registered an IC50 in the series with NCI-H1792 cells (Homo sapiens, NCI-H1792, 72 h) of under 10 µM. Moreover, the viability at 30 µM with NCI-H1792 cells (setting [1]) was determined as 57%. The same compound gave an inhibition at 1 µM in the series on OCI-Ly10 cells (at 1 μM) of 43%. In the series on OCI-Ly10 cells (at 10 μM), 10 µM produced 77% inhibition.

In the series with NCI-H2122 cells, `C=CC(=O)N1CCN(C(=O)NC2(C#Cc3ccc(Cl)c(Cl)c3)CC2)CC1` [Example 23] yielded an IC50 of under 10 µM and a viability at 30 µM of 21%. Moreover, in the series with OCI-Ly10 cells (at 1 μM), the inhibition at 1 µM was determined as 48%. For the same compound, testing at 10 µM in the series on OCI-Ly10 cells (at 10 μM) gave an inhibition of 67%.

As to `C=CC(=O)N1CCN(C(=O)NC(C)C#Cc2ccc(Cl)c(NC(=O)C3CC3)c2)CC1` (racemic) [Example 41, 4-acryloyl-N-(4-(4-chloro-3-(cyclopropanecarboxamido)phenyl)but-3-yn-2-yl) piperazine-1-carboxamide], in the series with NCI-H2122 cells, the IC50 fell in the range of 10 to 25 µM. This compound registered an inhibition at 1 µM in the series with OCI-Ly10 cells (at 1 μM) of 0%. This compound showed an inhibition at 10 µM in the series on OCI-Ly10 cells (at 10 μM) of 36%.

In the series on NCI-H2122 cells, `C=CC(=O)N1CCN(C(=O)NC2(C#Cc3ccc(Cl)c(Cl)c3)CCCC2)CC1` [Example 24] came in with an IC50 of under 10 µM. The inhibition at 1 µM with OCI-Ly10 cells (at 1 μM) stood at 35%. Besides, testing at 10 µM in the series with OCI-Ly10 cells (at 10 μM) gave an inhibition of 68%.

Consider `C=CC(=O)N1CCC(C(=O)NC(C)C#Cc2ccc(Cl)c(Cl)c2)C1` (stereo not shown) [Example 72], for which the IC50 in the series with NCI-H1792 cells fell in the range of 10 to 25 µM. Further, the “% Viability (at 30 μM)” value in the series on NCI-H1792 cells (at 30 μM, 72 hours) is 27%. The “% inhibition (at 1 μM)” value in the series on OCI-Ly10 cells (at 1 μM, 72 hours) amounted to 4%. For the same compound, the “% inhibition (at 10 μM)” value in the series on OCI-Ly10 cells (at 10 μM, 72 hours) worked out at 55%.

Consider `O=C(/C=C/C(F)(F)F)N1CCN(C(=O)NC2(C#Cc3ccc(Cl)c(Cl)c3)CC2)CC1` [Example 66, (E)-N-(1-((3,4-dichlorophenyl)ethynyl)cyclopropyl)-4-(4,4,4-trifluorobut-2-enoyl) piperazine-1-carboxamide], for which, in the series on NCI-H2122 cells, the IC50 is under 10 µM. This compound also came in with an inhibition at 1 µM in the series with OCI-Ly10 cells (at 1 μM) of 75%. Also, the inhibition at 10 µM in the series on OCI-Ly10 cells (at 10 μM) came out at 73%.
